Source: EP3246028A1, “QUINOLINE COMPOUNDS FOR INCREASING INSULINE RELEASE” (Max-Planck-Gesellschaft zur Förderung der Wissenschaften …, priority 2016, dated 2017)
“Also recorded” adds a separate entry of the source.

Assays:
[1] = tested on: RIN-5AH insulinoma beta cell line; assay: Insulin secretion (insulin ELISA of supernatants); format: cell-based; conditions: for activation at 5 µM: RIN-5AH cells, treated in medium for 2 hours, read-out: AV_INSULIN (percent increase in insulin secretion over a DMSO control)
Protocol: Culture medium and supplements were purchased from Life Technologies. The RIN-5AH insulinoma beta cell line was cultured in RPMI 1640 supplemented with 10% FBS, 2 mM glutamine. All culture media contained 1x penicillin-streptomycin. Cells were grown on 15 cm culture plates at 37°C under 5% CO2 in high humidity atmosphere.
To determine the insulin level from the supernatants insulin ELISA kits from Millipore or Mercodia were used. RIN-5AH cells were seeded in 96 well or 12 well plates and grown overnight. RIN-5AH cells never reached more than 80% confluency before treatment. Cells were washed once with PBS before treatment. Cells were treated in medium for 2 hours and with 5 µM of insulin secretagogue according to the present invention, if not otherwise indicated. After treatment 100ul of supernatant was taken. Samples were assayed immediately or stored at -20°C until measurement. Dilutions were made if necessary and ELISA was subsequently performed according to the user's manual. Insulin secretion was normalized to cell number by MTT assay or to total protein amount by BCA assay (ThermoFisher Scientific, 23225). Plates were read on BioTrek Elx800 absorbance reader at 450 nm.
RIN-5AH beta cells were treated with 5 µM compound 12 or 50 µM quinidine or chloroquine according to the above described protocol (Example 1).

[2] = tested on: RIN-5AH cells; assay: Calcium influx by FACS analysis (Fluo-4 AM fluorescence); format: cell-based; conditions: extracellular Ca2+ present, compound 12 at 5 µM, Figure 2
Protocol: Calcium influx was measured by FACS analysis, similar to protocols previously described (Brewis, I. A., journal of andrology 21, 238-249, doi:10.1002/j.1939-4640.2000.tb02101.x (2000); Vines, A., Cytometry Part A 77A, 1091-1097, doi:10.1002/cyto.a.20974 (2010); Schepers, E., Journal of Immunological Methods 348, 74-82, doi:http://dx.doi.org/10.1016/j.jim.2009.07.002 (2009)).
RIN-5AH cells (30,000 cells per well) were plated in 12 well plates and incubated overnight at 37°C and 5% CO2. Cells were stained with Fluo-4 AM (molecular probes, F14201) by using a 3µM stock solution prepared in HBSS with Ca2+ and Mg2+ (HBSS++) and with addition of a final amount of 0.02% Pluronic-F127 (molecular probes, P6867). Cells were incubated with 600ul of the dye/well for 1h at 37°C, in 5% CO2. They were washed 2x with Ca2+ and Mg2+ free HBSS (HBSS--) (Gibco, 14170) before moving to the next step of the protocol (see below).
Cells were trypsinized for three minutes at 37°C and 5% CO2. The cell suspension was then diluted by adding 1ml HBSS-- / well and centrifuged for 3 minutes at 1200 RPM. Cells were resuspended in 1 mL of HBSS++ or HBSS-- before starting the measurement. Base fluorescent signal was recorded for 30 seconds followed by treatment with the various compounds by quickly adding the compounds to the FACS analysis tubes, while acquisition was not interrupted (gaps). […] Samples were measured continuously for the desired time and all measurements were completed within 40 minutes. Unstained cells and stained cells in external buffer without Ca2+ and Mg2+ (HBSS--) were used as negative controls for the treatments. Data were acquired on BD-FACSCalibur and the visualizations were prepared by FlowJo software.

Compound	activation at 5 µM [1] [%]	divalent calcium cation influx (Fluo-4 AM fluorescence by FACS) [2]	effect on insulin secretion ([1]; negative control quinoline compounds)
N#Cc1cc(-c2cccc(N)c2)c2ccc(F)cc2n1 [Compound 1, 4-(3-aminophenyl)-7-fluoro-quinoline-2-carbonitrile]	151	–	–
CN(C)C(=O)c1cc(Nc2cc(C#N)nc3c(Br)cccc23)c(Cl)cc1Cl [Compound 2, 5-[(8-bromo-2-cyano-4-quinolyl)amino]-2,4-dichloro-N,N-dimethyl-benzamide]	125	–	–
COc1cc(Nc2cc(C#N)nc3c(Br)cccc23)c(Cl)cc1Cl [Compound 3, 8-bromo-4-(2,4-dichloro-5-methoxy-anilino)quinoline-2-carbonitrile]	116	–	–
COc1c(F)ccc2c(Nc3ccc(Cl)cc3C(F)(F)F)cc(C#N)nc12 [Compound 4, 4-[4-chloro-2-(trifluoromethyl)anilino]-7-fluoro-8-methoxy-quinoline-2-carbonitrile]	101	induced divalent calcium cation influx	–
N#Cc1cc(Nc2ccc(Cl)cc2C(F)(F)F)c2cc(F)ccc2n1 [Compound 5, 4-[4-chloro-2-(trifluoromethyl)anilino]-6-fluoro-quinoline-2-carbonitrile]	96	induced divalent calcium cation influx	–
N#Cc1cc(-c2cccc(NS(=O)(=O)c3c(F)cccc3F)c2)c2ccc(F)cc2n1 [Compound 6, N-[3-(2-cyano-7-fluoro-4-quinolyl)phenyl]-2,6-difluoro-benzenesulfonamide]	94	–	–
N#Cc1cc(Nc2ccc(Cl)cc2C(F)(F)F)c2cccc(F)c2n1 [Compound 7, 4-[4-chloro-2-(trifluoromethyl)anilino]-8-fluoro-quinoline-2-carbonitrile]	93	induced divalent calcium cation influx; also recorded: induced Ca2+ influx	–
COc1c(F)ccc2c(Nc3c(Cl)cccc3Cl)cc(C#N)nc12 [Compound 8, 4-(2,6-dichloroanilino)-7-fluoro-8-methoxy-quinoline-2-carbonitrile]	93	induced divalent calcium cation influx; also recorded: induced Ca2+ influx	–
COc1cc2c(Oc3ccc(NS(=O)(=O)c4cccc(-c5ccccc5)c4)cc3F)ccnc2cc1OCCCN [Compound 9, N-[4-[[7-(3-aminopropoxy)-6-methoxy-4-quinolyl]oxy]-3-fluoro-phenyl]-3-phenyl-benzenesulfonamide]	90	–	–
COc1cc(Nc2cc(C#N)nc3ccc(F)cc23)c(Cl)cc1Cl [Compound 10, 4-(2,4-dichloro-5-methoxy-anilino)-6-fluoro-quinoline-2-carbonitrile]	89	–	–
N#Cc1cc(-c2cccc(NC(=O)c3cccc(C(F)(F)F)c3)c2)c2ccc(F)cc2n1 [Compound 11, N-[3-(2-cyano-7-fluoro-4-quinolyl)phenyl]-3-(trifluoromethyl)benzamide]	86	–	–
COc1cc2c(Nc3ccc(Cl)cc3C(F)(F)F)cc(C#N)nc2cc1F [Compound 13, 4-[4-chloro-2-(trifluoromethyl)anilino]-7-fluoro-6-methoxy-quinoline-2-carbonitrile]	83	induced divalent calcium cation influx; also recorded: induced Ca2+ influx	–
N#Cc1cc(Nc2ccc(F)c(Cl)c2)c2cc(Cl)cc(Cl)c2n1 [Compound 14, 6,8-dichloro-4-(3-chloro-4-fluoro-anilino)quinoline-2-carbonitrile]	78	–	–
COc1ccc2nc(C#N)cc(Nc3cc(OC)c(Cl)cc3Cl)c2c1 [Compound 15, 4-(2,4-dichloro-5-methoxy-anilino)-6-methoxy-quinoline-2-carbonitrile]	78	–	–
COc1c(F)ccc2c(Nc3ccc(C)c(C)c3)cc(C#N)nc12 [Compound 16, 4-(3,4-dimethylanilino)-7-fluoro-8-methoxy-quinoline-2-carbonitrile]	78	–	–
COc1cc(Nc2c(C#N)cnc3cc(OCCCN)c(OC)cc23)c(Cl)cc1Cl [Compound 17, 7-(3-aminopropoxy)-4-(2,4-dichloro-5-methoxy-anilino)-6-methoxy-quinoline-3-carbonitrile]	74	–	–
N#Cc1cc(Nc2c(Cl)cccc2Cl)c2cccc(F)c2n1 [Compound 18, 4-(2,6-dichloroanilino)-8-fluoro-quinoline-2-carbonitrile]	73	induced divalent calcium cation influx; also recorded: induced Ca2+ influx	–
COc1cc(Nc2cc(C#N)nc3c(F)cccc23)c(Cl)cc1Cl [Compound 19, 4-(2,4-dichloro-5-methoxy-anilino)-8-fluoro-quinoline-2-carbonitrile]	70	–	–
COc1cc2c(Nc3ccc(Cl)cc3Cl)c(C#N)cnc2cc1OCCCN [Compound 20, 7-(3-aminopropoxy)-4-(2,4-dichloroanilino)-6-methoxy-quinoline-3-carbonitrile]	67	–	–
COc1cc2c(Nc3c(Cl)cccc3Cl)cc(C#N)nc2cc1F [Compound 21, 4-(2,6-dichloroanilino)-7-fluoro-6-methoxy-quinoline-2-carbonitrile]	65	–	–
COc1cc(Nc2cc(C#N)nc3c(C(F)(F)F)cccc23)c(Cl)cc1Cl [Compound 22, 4-(2,4-dichloro-5-methoxy-anilino)-8-(trifluoromethyl)quinoline-2-carbonitrile]	58	–	–
CN(C)Cc1cc(Nc2cc(C#N)nc3cc(F)ccc23)c(Cl)cc1Cl [Compound 23, 4-[2,4-dichloro-5-(dimethylaminomethyl)anilino]-7-fluoro-quinoline-2-carbonitrile]	57	–	–
COc1cc2nccc(-c3cccc(Nc4cc(C#N)nc5c(F)cccc45)c3)c2cc1OC [Compound 24, 4-[3-(6,7-dimethoxy-4-quinolyl)anilino]-8-fluoro-quinoline-2-carbonitrile]	57	–	–
CN(C)C(=O)c1cc(Nc2cc(C#N)nc3c(F)cccc23)c(Cl)cc1Cl [Compound 25, 2,4-dichloro-5-[(2-cyano-8-fluoro-4-quinolyl)amino]-N,N-dimethyl-benzamide]	48	–	–
COc1cc2c(Oc3ccc(NS(=O)(=O)c4cccc(-c5ccccc5)c4)cc3F)ccnc2cc1OCCCN1CCOCC1 [Compound 26, N-[3-fluoro-4-[[6-methoxy-7-(3-morpholinopropoxy)-4-quinolyl]oxy]phenyl]-3-phenyl-benzenesulfonamide]	47	–	–
COc1cc2nccc(-c3cccc(Nc4cc(C(N)=O)nc5c(F)cccc45)c3)c2cc1OC [Compound 27, 4-[3-(6,7-dimethoxy-4-quinolyl)anilino]-8-fluoro-quinoline-2-carboxamide]	46	–	–
CN(C)C(=O)c1cc(Nc2cc(C#N)nc3cc(F)ccc23)c(Cl)cc1Cl [Compound 28, 2,4-dichloro-5-[(2-cyano-7-fluoro-4-quinolyl)amino]-N,N-dimethyl-benzamide]	45	–	–
N#Cc1cc(Nc2c(Cl)cccc2Cl)c2cc(F)ccc2n1 [Compound 29, 4-(2,6-dichloroanilino)-6-fluoro-quinoline-2-carbonitrile]	41	–	–
COc1cc(Nc2cc(C#N)nc3cc(F)c(OCCCN4C(=O)c5ccccc5C4=O)cc23)c(Cl)cc1Cl [Compound 63, 4-(2,4-dichloro-5-methoxy-anilino)-6-[3-(1,3-dioxoisoindolin-2-yl)propoxy]-7-fluoro-quinoline-2-carbonitrile]	–	did not show any increase	didn't show any effect
COc1cc2c(Nc3cc(OC)c(Cl)cc3Cl)cc(C#N)nc2cc1F [Compound 75, 4-(2,4-dichloro-5-methoxy-anilino)-7-fluoro-6-methoxy-quinoline-2-carbonitrile]	116	–	–
